PubChem BioAssay AID2060898 (Molecular Pharmacology Branch, DTP, NCI, 2025)

Test system: 616215-338-R-J1-PDC complex spheroid viability
Experiment: Anticancer human tumor 616215-338-R-J1-PDC patient-derived colon adenocarcinoma cell line growth inhibition [RAS]
Conditions: for IC50: curve of first compound; for viability, T/C: stronger effect = lower value; active means viability on the fitted dose curve at most 10% of control; inactive means the rest
Procedure, shortened: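 Agents were tested in combination matrices in half-log decrements from a top concentration at or near clinical Cmax (10 microM if undetermined). Targets were multi-cell spheroids of tumour lines plus HUVEC and MSC stromal cells.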

[1] = second compound 0.00316 µM, first compound 0.00316 µM
[2] = second compound 0.00316 µM, first compound 0.01 µM
[3] = second compound 0.00316 µM, first compound 0.0316 µM
[4] = second compound 0.00316 µM, first compound 0.1 µM
[5] = second compound 0.00316 µM, first compound 0.316 µM
[6] = second compound 0.00316 µM, first compound 1 µM
[7] = second compound 0.01 µM, first compound 0.00316 µM
[8] = second compound 0.01 µM, first compound 0.01 µM
[9] = second compound 0.01 µM, first compound 0.0316 µM
[10] = second compound 0.01 µM, first compound 0.1 µM
[11] = second compound 0.01 µM, first compound 0.316 µM
[12] = second compound 0.01 µM, first compound 1 µM
[13] = second compound 0.0316 µM, first compound 0.00316 µM
[14] = second compound 0.0316 µM, first compound 0.01 µM
[15] = second compound 0.0316 µM, first compound 0.0316 µM
[16] = second compound 0.0316 µM, first compound 0.1 µM
[17] = second compound 0.0316 µM, first compound 0.316 µM
[18] = second compound 0.0316 µM, first compound 1 µM
[19] = second compound 0.1 µM, first compound 0.00316 µM
[20] = second compound 0.1 µM, first compound 0.01 µM
[21] = second compound 0.1 µM, first compound 0.0316 µM
[22] = second compound 0.1 µM, first compound 0.1 µM
[23] = second compound 0.1 µM, first compound 0.316 µM
[24] = second compound 0.1 µM, first compound 1 µM
[25] = second compound 0.316 µM, first compound 0.00316 µM
[26] = second compound 0.316 µM, first compound 0.01 µM
[27] = second compound 0.316 µM, first compound 0.0316 µM
[28] = second compound 0.316 µM, first compound 0.1 µM
[29] = second compound 0.316 µM, first compound 0.316 µM
[30] = second compound 0.316 µM, first compound 1 µM
[31] = second compound 1 µM, first compound 0.00316 µM
[32] = second compound 1 µM, first compound 0.01 µM
[33] = second compound 1 µM, first compound 0.0316 µM
[34] = second compound 1 µM, first compound 0.1 µM
[35] = second compound 1 µM, first compound 0.316 µM
[36] = second compound 1 µM, first compound 1 µM
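Further: spheroids exposed to agents for seven days before viability readout.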
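Wherever viability, T/C is given: 100% = DMSO vehicle control viability.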

C=CC(=O)Nc1cc(Nc2nccc(-c3cn(C)c4ccccc34)n2)c(OC)cc1N(C)CCN(C)C + C=CC(=O)N1CCN(c2nc(OCC3CCCN3C)nc3c(F)c(-c4nc(N)cc(C)c4C(F)(F)F)c(Cl)cc23)C(C)C1
> 1000 nM: IC50 (second compound 0.00316 µM) | IC50 (second compound 0.01 µM) | IC50 (second compound 0.0316 µM) | IC50 (second compound 0.1 µM) | IC50 (second compound 0.316 µM) | IC50 (second compound 1 µM)
inactive: viability, T/C [1] 95.8% | viability, T/C [2] 105% | viability, T/C [3] 107% | viability, T/C [4] 104% | viability, T/C [5] 106% | viability, T/C [6] 85.6% | viability, T/C [7] 93% | viability, T/C [8] 108% | viability, T/C [9] 99% | viability, T/C [10] 101% | viability, T/C [11] 108% | viability, T/C [12] 101% | viability, T/C [13] 101% | viability, T/C [14] 110% | viability, T/C [15] 107% | viability, T/C [16] 99.3% | viability, T/C [17] 108% | viability, T/C [18] 96% | viability, T/C [19] 103% | viability, T/C [20] 102% | viability, T/C [21] 88.6% | viability, T/C [22] 106% | viability, T/C [23] 128% | viability, T/C [24] 74.2% | viability, T/C [25] 105% | viability, T/C [26] 98.9% | viability, T/C [27] 99.4% | viability, T/C [28] 106% | viability, T/C [29] 109% | viability, T/C [30] 74.4% | viability, T/C [31] 96.9% | viability, T/C [32] 98.3% | viability, T/C [33] 91% | viability, T/C [34] 114% | viability, T/C [35] 110% | viability, T/C [36] 68.9%

CC(Nc1ccc2c(c1)OCCn1cc(N3C(=O)OCC3C(F)F)nc1-2)C(N)=O (stereo unspecified) + C=CC(=O)N1CCN(c2nc(OCC3CCCN3C)nc3c(F)c(-c4nc(N)cc(C)c4C(F)(F)F)c(Cl)cc23)C(C)C1
inactive: viability, T/C [3] 106% | viability, T/C [4] 122% | viability, T/C [5] 109% | viability, T/C [6] 101% | viability, T/C (second compound 0.00316 µM, first compound 3.16 µM) 100% | viability, T/C (second compound 0.00316 µM, first compound 10 µM) 82.2% | viability, T/C [9] 106% | viability, T/C [10] 115% | viability, T/C [11] 110% | viability, T/C [12] 111% | viability, T/C (second compound 0.01 µM, first compound 3.16 µM) 105% | viability, T/C (second compound 0.01 µM, first compound 10 µM) 85.9% | viability, T/C [15] 110% | viability, T/C [16] 114% | viability, T/C [17] 119% | viability, T/C [18] 115% | viability, T/C (second compound 0.0316 µM, first compound 3.16 µM) 93.3% | viability, T/C (second compound 0.0316 µM, first compound 10 µM) 80.1% | viability, T/C [21] 111% | viability, T/C [22] 108% | viability, T/C [23] 107% | viability, T/C [24] 131% | viability, T/C (second compound 0.1 µM, first compound 3.16 µM) 101% | viability, T/C (second compound 0.1 µM, first compound 10 µM) 77.9% | viability, T/C [27] 109% | viability, T/C [28] 103% | viability, T/C [29] 111% | viability, T/C [30] 109% | viability, T/C (second compound 0.316 µM, first compound 3.16 µM) 103% | viability, T/C (second compound 0.316 µM, first compound 10 µM) 86.2% | viability, T/C [33] 106% | viability, T/C [34] 107% | viability, T/C [35] 109% | viability, T/C [36] 119% | viability, T/C (second compound 1 µM, first compound 3.16 µM) 98% | viability, T/C (second compound 1 µM, first compound 10 µM) 73.4%
> 10000 nM: IC50 (second compound 0.00316 µM) | IC50 (second compound 0.01 µM) | IC50 (second compound 0.0316 µM) | IC50 (second compound 0.1 µM) | IC50 (second compound 0.316 µM) | IC50 (second compound 1 µM)

O=C(c1ccc(F)c(F)c1Nc1ccc(I)cc1F)N1CC(O)([C@@H]2CCCCN2)C1 + C=CC(=O)N1CCN(c2nc(OCC3CCCN3C)nc3c(F)c(-c4nc(N)cc(C)c4C(F)(F)F)c(Cl)cc23)C(C)C1
active: viability, T/C [6] 4.36% | viability, T/C [12] 6.62% | viability, T/C [18] 3.89% | viability, T/C [24] 6.51% | viability, T/C [30] 4.52% | viability, T/C [36] 5.31%
70.7 nM: IC50 (second compound 0.01 µM)
61.3 nM: IC50 (second compound 1 µM)
inactive: viability, T/C [1] 114% | viability, T/C [2] 112% | viability, T/C [3] 65.3% | viability, T/C [4] 38.6% | viability, T/C [5] 12.9% | viability, T/C [7] 98.8% | viability, T/C [8] 108% | viability, T/C [9] 81.7% | viability, T/C [10] 36% | viability, T/C [11] 13.1% | viability, T/C [13] 110% | viability, T/C [14] 115% | viability, T/C [15] 74.7% | viability, T/C [16] 40% | viability, T/C [17] 15% | viability, T/C [19] 106% | viability, T/C [20] 116% | viability, T/C [21] 82.5% | viability, T/C [22] 47.5% | viability, T/C [23] 16.7% | viability, T/C [25] 100% | viability, T/C [26] 105% | viability, T/C [27] 80.6% | viability, T/C [28] 33.1% | viability, T/C [29] 13.9% | viability, T/C [31] 102% | viability, T/C [32] 101% | viability, T/C [33] 72.2% | viability, T/C [34] 31.7% | viability, T/C [35] 18.8%
89.4 nM: IC50 (second compound 0.1 µM)
62.1 nM: IC50 (second compound 0.00316 µM)
72.1 nM: IC50 (second compound 0.0316 µM)
67.4 nM: IC50 (second compound 0.316 µM)
